Assay results from patent US11278525B1, “Further molecules, compositions and methods for modulation of SIRT6” (SirTLab Corporation, priority 2017, dated 2022).

Biological target: SIRT6 (Homo sapiens, UniProt Q8N6T7)
Assay: SIRT6 enzymatic activity assay with fluorophore (AMC)-labeled Lysin-myristoylated histone H3 peptide (de-myristoylation, trypsin release)
Format: biochemical
Design: six-histidine tag; made in house; host or cells: Escherichia coli BL21
Details: for % Activity: amount tested 20 uM, Example 5, Table 9; for % activity Max. conc. 100 uM: compound 100 uM; for % activity Max. conc. 100 uM / % activity 20 uM: percentage of signal increase relative to control wells, Tables 1-2; for % activity 20 uM: compound 20 uM
Protocol: Human recombinant SIRT6 (sequence identifier: CAG33481.1; GI:4814651) was expressed in large scale in Escherichia coli strain BL21 as a six-histidine-tagged protein, after transformation of the expression plasmid pET28-SIRT6. The SIRT6 enzyme was purified from the bacteria culture broth in a two-step strategy. The first purification step was carried out by cation exchange chromatography on a HiTrap CM-Sepharose column (GE Healthcare) using an FPLC system. The second purification step was performed by immobilized metal ion affinity chromatography (IMAC) using a cobalt affinity column (Clontech).
The enzymatic activity assay is carried out in 96 or 384-well microplates using the purified recombinant SIRT6 and a fluorophore-labeled peptide substrate: 7-amino-4-methylcoumarin (AMC) that is quenched through conjugation to the C-terminal end of a Lysin-myristoylated histone H3 peptide. The activity assay procedure requires two steps, both performed in the same microplate. In the first step, the substrate is incubated with the purified SIRT6 protein along with the co-substrate nicotinamide adenine dinucleotide (NAD+). Upon de-myristoylation, the liberated ε-amino group of the lysine becomes a trypsin substrate. Treatment with trypsin in the second step releases the fluorophore resulting in an increase in fluorescence. Fluorescence intensity is measured using a fluorescent plate reader (excitation and emission at 370 nm and 450 nm, respectively). The fluorescence signal is directly proportional to SIRT6 enzymatic activity.
In the primary screening, compounds from a library (ChemDiv Inc.) were tested at a single concentration of 20 micromolar for their potential to modulate SIRT6 enzymatic activity. The assay was carried out in 384-well black well plates and all liquid handling was done using a robotic liquid handler. Purified recombinant SIRT6 (1 micromolar) was pre-incubated with each compound (or DMSO in control wells) for 15 minutes at room temperature. The first stage of the assay was initiated by adding a ‘substrate solution’ containing the myristoylated histone H3 peptide and NAD+(for final concentrations of 25 micromolar and 20 micromolar, respectively). After one hour incubation at 37° C., a Trypsin solution (6 mg/mL) was added for 30 minutes at room temperature. Fluorescence intensity was measured using a fluorescent plate reader (Tecan) with excitation at 370 nm and emission at 450 nm. The effect of each tested compound was evaluated by the change in the fluorescence intensity compared to control wells. […] To validate the primary screening results, each of the primary “hits” was re-tested, first at concentration of 20 micromolar in duplicates and later at a serial dilution ranging from 100 to 0.2 micromolar in triplicates.
Results of Assay—The results of the assay are given below in Tables 1-3.
Additional molecules were tested according to the methods and materials of Example 1. The amount tested was 20 uM for each molecule.

SIRT6, sequence (Q8N6T7 whole entry): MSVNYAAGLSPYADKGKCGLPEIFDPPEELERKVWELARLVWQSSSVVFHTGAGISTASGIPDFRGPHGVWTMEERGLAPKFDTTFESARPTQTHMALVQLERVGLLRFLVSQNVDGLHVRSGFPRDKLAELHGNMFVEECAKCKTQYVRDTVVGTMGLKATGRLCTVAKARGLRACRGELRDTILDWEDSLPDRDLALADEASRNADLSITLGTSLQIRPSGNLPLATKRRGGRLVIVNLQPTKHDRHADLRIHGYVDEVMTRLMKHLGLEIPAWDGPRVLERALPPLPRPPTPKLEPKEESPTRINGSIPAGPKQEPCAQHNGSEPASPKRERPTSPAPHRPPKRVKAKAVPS

SMILES	% Activity	% activity Max. conc. 100 uM	further results
CCCc1ccc(-c2ccc(C(=O)Nc3nc4ccc(C)cc4s3)cc2)nc1 [0703-6407]	40%		
CCCCCCOc1ccc(C(=O)Nc2nc3ccc(OC)cc3s2)cc1 [0938-8060]	47%		
CCCc1cc2c(=O)c(-c3ccc4c(c3)OCO4)coc2cc1OC(C)=O [2188-3841]	21%		
CC(=O)Oc1ccc2c(C)c(Cc3ccccc3)c(=O)oc2c1C [2259-4062]	137%		
CCC(=O)Oc1ccc2c(C)c(Cc3ccccc3)c(=O)oc2c1C [2259-4063]	273%		
COc1ccc(C(=O)Oc2ccc3c4c(c(=O)oc3c2)CCC4)cc1 [2712-3502]	264%		
O=C(Oc1ccc2c3c(c(=O)oc2c1)CCC3)c1cccs1 [2712-4058]	455%		
COc1cc(C(=O)Oc2ccc3c4c(c(=O)oc3c2)CCC4)cc(OC)c1OC [2712-4061]	52%		
Cc1ccccc1C(=O)Oc1ccc2c3c(c(=O)oc2c1)CCC3 [2712-4063]	61%		
COc1ccc(C(=O)Oc2ccc3c4c(c(=O)oc3c2)CCC4)cc1OC [2712-4069]	294%		
CC(=O)Oc1ccc2c3c(c(=O)oc2c1C)CCCC3 [3330-4541]	105%		
Cc1ccc(COc2ccc3c4c(c(=O)oc3c2C)CCC4)cc1 [3338-2074]	21%		
COc1cc(OC)cc(C(=O)Nc2nc3c(cc4c5c(cccc53)CC4)s2)c1 [3343-0231]	24%		
COC(=O)COc1cccc2c1ccc1c3c(c(=O)oc12)CCCC3 [3532-0820]	30%		
CC(=O)Oc1ccc(C(=O)Nc2nc3c(C)cc(C)cc3s2)cc1 [3659-2007]	27%		
C=C(Cc1ccc2c(c1)C(C)=CC(C)(C)N2)Cc1cccc2ccccc12 [4477-0762]		56%	
CC1=CC(C)(C)Nc2ccc(OC(=O)c3cccs3)cc21 [4477-2607]		54%	
Cc1ccnc(NC(c2ccc(Cl)cc2Cl)c2ccc3cccnc3c2O)c1 (centres unmarked) [4896-3248]		28%	% activity 20 uM: 30%
Cc1c(OC(=O)c2ccccc2)ccc2c3c(c(=O)oc12)CCC3 [4986-0081]	41%		

SMILES	% Activity	% activity Max. conc. 100 uM	further results
Cc1nc2cc(-c3ccccc3)nn2c(C(C)(C)C)c1C [5197-0134]	21%		
Cn1c(-c2ccc3[nH]c(-c4ccc(N)cc4)nc3c2)nc2cc(N)ccc21 [6843-3168]		162%	
O=C(C1=CC=CC1)n1nc(-c2ccccc2)nc1NCc1ccco1 [6855-0211]	77%		
COC(=O)c1ccccc1NC(=O)Cn1c(S(=O)(=O)Cc2ccccc2)nc2ccccc21 [7398-1534]	27%		
CCS(=O)(=O)c1nc2ccccc2n1CC(=O)Nc1ccccc1C(=O)OC [7398-1618]	156%		
CCc1nnc(NC(=O)CSc2nc(N)nc(SC)c2C#N)s1 [8001-8196]		25%	
O=C(c1ccccc1Br)N1C(=O)c2ccccc2S1(=O)=O [8006-3826]	56%		
C=C(CS)Nc1ccc(CCCCC)cc1 [8008-0525]		48%	
C=C(CN1c2ccccc2C(C)(C)C12C=Cc1c(ccc3ccccc13)C2)NC (centres unmarked) [8008-8279]		27%	
COC(=O)CSc1ccc(C#N)c(SCC(=O)OC)c1 [8012-3471]	23%		
Cc1nc2sc(-c3nc4ccccc4[nH]3)c(N)c2c(C)c1Cl [8012-5593]		59%	
O=c1[nH]c2ccc(Cl)cc2c(-c2ccccc2)c1Nc1ccc(Oc2ccccc2)cc1 [8013-3307]		86%	% activity 20 uM: 24%
N#Cc1c(N)oc(C2=CC=CC2)c1-c1ccco1 [8014-9229]		48%	
O=c1cc(O)c2sc3nc4c(cc3c2[nH]1)CCCCC4 [8018-3339]		75%	
C=C1Nc2nc(OC(C)=O)c(C)c(C)c2S1 [8018-4551]		197%	
COc1ccc(-c2nn3c(C)nnc3s2)cc1N [8018-6508]		18%	
Cc1cc(C)c2c(N)c(-c3nnc(-c4ccccc4)o3)sc2n1 [8018-7776]	42%		
CC1=NCC(c2ccc(O)cc2O)=C1c1ccc(Cl)cc1 [8020-1200]		94%	
CN(C)CCCN(C(=O)CCOc1ccccc1)c1nc2ccc(Cl)cc2s1 [B677-0564]	28%		

Continued, in another order:

% Activity	% activity Max. conc. 100 uM	SMILES	further results
	61%	C=C(OC(C)CC)C1=C(C)NC2=C(C(=C)C(C(=C)OC)C(C)C2)C1c1ccc(N(CC)CC)cc1 (centres unmarked) [C142-0098]	
	22%	COc1ccc(-c2csc3c(NN)ncnc23)cc1 [C201-1744]	
	36%	C=S(=C)(c1cc(Cl)ccc1Cl)n1c(/C=C/c2ccc(SC)cc2)nc2ccccc21 [C381-0232]	
	29%	CCN1CCCC1CNC(=O)C1CCN(c2cc(C)nc3c(-c4ccc(Cl)cc4)c(C)nn23)CC1 (centres unmarked) [C535-0969]	
	65%	Cc1ccccc1CSc1ncc(Sc2ccccc2)c(C(=O)NCc2ccccc2)n1 [D506-0127]	
	47%	Cc1cc(NC(=O)CSc2nnc(-c3sc4ncccc4c3N)n2C)ccc1Cl [D549-0050]	
	22%	Cc1cc(Nc2ccc(NC(=O)Nc3ccc4c(c3)CCCO4)cc2)nc(NC2CCCCC2)n1 [D577-0290]	
	56%	CC[C@H]1O[C@@H](Cc2ccc3c(c2C)CC(=O)C(C)=C3C)[C@H](C)[C@@H](O)[C@H]1C [D715-0292]	
	137%	O=C(NCc1cccc(Cl)c1)c1noc2c1CSc1ccccc1-2 [E146-0990]	
61%		CCOc1cccc2sc(N(CCN(C)C)C(=O)CCS(=O)(=O)c3ccccc3)nc12 [E676-1270]	
80%		CN(C)CCN(C(=O)CCS(=O)(=O)c1ccccc1)c1nc2c(Cl)cccc2s1 [E676-1524]	
59%		COc1ccc(C)c2sc(N(CCN(C)C)C(=O)CCS(=O)(=O)c3ccccc3)nc12 [E676-2540]	
121%		CCN(CC)CCN(C(=O)CCS(=O)(=O)c1ccccc1)c1nc2c(C)cccc2s1 [E676-3810]	
60%		CCN(CC)CCN(C(=O)CCOc1ccccc1)c1nc2c(F)cccc2s1 [E676-4120]	
38%		CCN(CC)CCN(C(=O)CCOc1ccccc1)c1nc2c(F)cc(F)cc2s1 [E676-5517]	
53%		CN(C)CCCN(C(=O)CCS(=O)(=O)c1ccccc1)c1nc2ccc(F)cc2s1 [E677-0508]	

% Activity	% activity Max. conc. 100 uM	SMILES	further results
28%		CN(C)CCCN(C(=O)CCOc1ccccc1)c1nc2ccc(Br)cc2s1 [E677-0691]	
117%		COc1cccc2sc(N(CCCN(C)C)C(=O)CCOc3ccccc3)nc12 [E677-1072]	
111%		COc1cccc2sc(N(CCCN(C)C)C(=O)CCSc3ccccc3)nc12 [E677-1137]	
111%		COc1cccc2sc(N(CCCN(C)C)C(=O)CCS(=O)(=O)c3ccccc3)nc12 [E677-1143]	
95%		CN(C)CCCN(C(=O)CCS(=O)(=O)c1ccccc1)c1nc2c(F)cccc2s1 [E677-1397]	
70%		Cc1ccc2sc(N(CCCN(C)C)C(=O)CCS(=O)(=O)c3ccccc3)nc2c1C [E677-2159]	
115%		Cc1cc(C)c2sc(N(CCCN(C)C)C(=O)CCS(=O)(=O)c3ccccc3)nc2c1 [E677-2413]	
	246%	C=C1Cc2ccc(C)cc2C2=C1C(c1ccc(F)cc1)=C(NCCOC)C2 [F025-0094]	
	226%	C=C1Oc2ccc(C)cc2-c2oc(NCCOC)c(-c3ccc(OCC)cc3)c21 [F025-0098]	
	111%	COCCNc1oc2c(c1-c1ccc(C)cc1)c(=O)oc1c(C)cccc12 [F025-0102]	
117%		CCC(=O)Nc1nc2c(OC)cc(NC(=O)c3ccccc3OC)cc2s1 [F259-0462]	
	16%	Cc1ccc(NC(=O)c2nnc(-c3ccc(NC(=O)c4cccs4)cc3)s2)cc1 [F498-0132]	
88%		O=C(CSc1nc2ncccc2n2cccc12)NCc1ccco1 [G117-0491]	
45%		COc1ccc(CN2CCN(C(=O)c3ccc(N4CCc5ccccc54)s3)CC2)c(OC)c1OC [G122-1838]	
	73%	C=C(CN1C(=C)C(c2nc(-c3ccccc3)no2)=C(C)C=C1C)NCCc1ccc(CC)c(CC)c1 [G744-0071]	
